Source: patent US20080176870A1, “Heterobicyclic metalloprotease inhibitors” (priority 2006, published 2008)
pIC50: −log10 of the molar value.

molecular target: T1, catalytic domain of MMP-13 enzyme (Homo sapiens, UniProt P45452); experiment: Assay for determining MMP-13 inhibition (fluorescent substrate); format: biochemical; conditions: Table 1, Summary of MMP-13 Activity for Compounds; read-out: MMP-13 Activity (IC50 MMP-13), Group
T1 construct: 10 μL of a 50 nM stock solution of catalytic domain of MMP-13 enzyme (produced by Alantos)
Experimental: Assay for Determining MMP-13 Inhibition
The typical assay for MMP-13 activity is carried out in assay buffer comprised of 50 mM Tris, pH 7.5, 150 mM NaCl, 5 mM CaCl2 and 0.05% Brij-35. Different concentrations of tested compounds are prepared in assay buffer in 50 μL aliquots. 10 μL of a 50 nM stock solution of catalytic domain of MMP-13 enzyme (produced by Alantos) is added to the compound solution. The mixture of enzyme and compound in assay buffer is thoroughly mixed and incubated for 10 min at room temperature. Upon the completion of incubation, the assay is started by addition of 40 μL of a 12.5 μM stock solution of MMP-13 fluorescent substrate (Calbiochem, Cat. No. 444235). The time-dependent increase in fluorescence is measured at the 320 nm excitation and 390 nm emission by automatic plate multireader. The IC50 values are calculated from the initial reaction rates.

| Compound | pIC50 |
| --- | --- |
| O=C1COc2ccc(CNC(=O)c3cc(C(F)(F)F)n4ncnc4n3)cc2N1 [Example 188] | 4.70 to 6.70 |
| N#Cc1cc(C(=O)NCc2ccc3c(c2)NC(=O)CO3)nc2ncnn12 [Example 190] | 4.70 to 6.70 |
| Cc1cc(CNC(=O)c2cc(C(=O)O)n3nccc3n2)ccc1F [Example 193] | 4.70 to 6.70 |
| Nc1c(N2CCc3ccc(CNC(=O)c4cc(C(=O)O)n5ncnc5n4)cc3C2)c(=O)c1=O [Example 195] | 4.70 to 6.70 |
| O=C(NCc1ccc(F)cc1)c1cc(NC(=O)C23CCC(C(=O)O)(CC2)CC3)n2nccc2n1 [Example 209] | 4.70 to 6.70 |
| Cc1c(C(=O)O)ccc2c1CC[C@@H]2NC(=O)c1cc(C(=O)NCc2ccc3c(c2)NC(=O)CO3)nc2ccccc12 [Example 211] | 4.70 to 6.70 |

Now from value to compound:

| pIC50 | Compound |
| --- | --- |
| > 6.70 | Cc1c(C(=O)O)ccc2c1CCC2NCc1cc(C(=O)NCc2ccc(F)c(F)c2)nc2ccnn12 (stereo not shown) [Example 29, 1-{[5-(3,4-difluoro-benzylcarbamoyl)-pyrazolo[1,5-a]pyrimidin-7-ylmethyl]-amino}-4-methyl-indan-5-carboxylic acid] |
| > 6.70 | Cc1c(C(=O)O)ccc2c1CCC2N(CC(=O)O)Cc1cc(C(=O)NCc2ccc(F)c(F)c2)nc2ccnn12 (stereo not shown) [Example 32, 1-{carboxymethyl-[5-(3,4-difluoro-benzylcarbamoyl)-pyrazolo[1,5-a]pyrimidin-7-ylmethyl]-amino}-4-methyl-indan-5-carboxylic acid] |
| > 6.70 | O=C1COc2ccc(CNC(=O)c3cc(-c4nn[nH]n4)n4ncc(F)c4n3)cc2N1 [Example 141] |
| > 6.70 | CC(C)(C)n1nnc(-c2cc(C(=O)NCc3ccc4c(c3)NC(=O)CO4)nc3ccnn23)n1 [Example 152] |
| > 6.70 | O=C1COc2ccc(CNC(=O)c3cc(-c4nnn(Cc5ccc(C(=O)O)cc5)n4)n4nccc4n3)cc2N1 [Example 160] |
| > 6.70 | CC(C)(C)c1noc(-c2cc(C(=O)NCc3ccc4c(c3)NC(=O)CO4)nc3c(F)cnn23)n1 [Example 163] |
| > 6.70 | O=C(NCC12CCC(C(=O)O)(CC1)CC2)Nc1cc(C(=O)NCc2ccc(F)cc2)nc2ccnn12 [Example 208] |
